In general, DC50 refers to the midpoint of the concentration-degradation curve.

The target in this assay is T1, Androgen Receptor (AR) (Homo sapiens, UniProt P10275).
T1 sequence (P10275 1-920): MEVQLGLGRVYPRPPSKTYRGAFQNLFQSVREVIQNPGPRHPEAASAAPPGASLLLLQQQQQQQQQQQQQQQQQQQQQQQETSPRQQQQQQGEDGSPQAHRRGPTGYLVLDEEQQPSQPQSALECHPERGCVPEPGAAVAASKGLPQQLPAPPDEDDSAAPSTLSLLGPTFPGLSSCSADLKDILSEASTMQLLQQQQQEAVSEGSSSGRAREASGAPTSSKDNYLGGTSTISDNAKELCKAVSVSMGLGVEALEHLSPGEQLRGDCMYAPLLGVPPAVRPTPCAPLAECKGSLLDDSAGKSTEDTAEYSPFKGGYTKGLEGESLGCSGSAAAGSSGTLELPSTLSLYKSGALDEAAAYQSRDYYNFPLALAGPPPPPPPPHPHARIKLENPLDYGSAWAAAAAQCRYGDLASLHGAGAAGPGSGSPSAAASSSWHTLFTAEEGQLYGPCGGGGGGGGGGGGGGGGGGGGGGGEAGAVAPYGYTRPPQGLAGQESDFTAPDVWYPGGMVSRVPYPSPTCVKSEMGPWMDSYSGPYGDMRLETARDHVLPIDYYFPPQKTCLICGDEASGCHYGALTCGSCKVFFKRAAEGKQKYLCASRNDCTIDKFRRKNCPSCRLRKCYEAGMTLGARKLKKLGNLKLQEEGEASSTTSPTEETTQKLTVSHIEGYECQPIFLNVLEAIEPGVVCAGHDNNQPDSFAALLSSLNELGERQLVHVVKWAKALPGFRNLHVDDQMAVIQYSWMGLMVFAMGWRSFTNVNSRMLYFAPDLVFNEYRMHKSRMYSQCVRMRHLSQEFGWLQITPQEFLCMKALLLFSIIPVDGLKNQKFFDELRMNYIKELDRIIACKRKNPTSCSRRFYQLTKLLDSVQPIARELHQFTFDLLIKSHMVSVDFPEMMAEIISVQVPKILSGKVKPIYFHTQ
Kind of assay: Measurement of AR protein degradation in VCaP cells by Western blotting. Format: cell-based. More on the design: endogenous in cells; host or cells: VCaP. Conditions: for Dmax at 0.01 µM / Dmax at 0.1 µM: read-out: AR degradation in VCaP cells (%); for Dmax: read-out: AR degradation in VCaP cells Dmax (%); for DC50: read-out: AR degradation in VCaP cells DC50. On the procedure:
The amount of AR protein present in LNCaP or VCaP cells was measured after treating them with the synthesized compound. The amount of AR protein was measured using Western blotting. The protocol for the experiments using LNCaP or VCaP cells was as follows.
[Culture] LNCaP cells were resuspended in RPMI1640 medium + HEPES (Hyclone, SH30255.01), 10% FBS (Hyclone, SV30207.02), and 1% Penicillin-streptomycin (Welgene, LS 202-02). 3 x 10^5 cells/mL were seeded in 12-well plates (1 mL per well) and cultured for 3 days. VCaP cells were resuspended in IMDM MEDIUM (Hyclone, SH30228.01), 20% FBS (Hyclone, SV30207.02), and 1% Penicillin-streptomycin (Welgene, LS 202-02), seeded at 9 x 10^5/mL in 1 mL per 12-well plate, and cultured for 3 days.
[Compound Treatment] 10 µL of 100x stock (e.g., 0.1, 1, 10 µM) compound solution at the final compound treatment concentration (e.g., 0.001, 0.01, 0.1 µM) was added to each well in 1 mL media, and cells were harvested after 20 hours. For DC50 measurement, 100x stock (0.01, 0.1, 1, 10, 100, 1000 µM) compound solutions at the final compound treatment concentration (0.0001, 0.001, 0.01, 0.1, 1, 10 µM) were used.
[Cell lysis] The cell pellet was suspended using 1% SDS lysis buffer (50 mM Tris, 1 mM EDTA, 1% SDS, pH 8.0, 0.5 mM PMSF, 1x Protease/Phosphatase inhibitor Cocktail (Cell Signaling Technology, 5872S)), and sonication (70% AMP, 10 cycles (30 sec ON/59 sec OFF)) was performed. After centrifugation at 4°C and 20,000 g for 20 minutes, the cell lysate was obtained and transferred to a new tube.
[Protein Quantification] A BCA protein assay (SMART™ BCA Protein Assay Kit, iNtRON Biotechnology, 21071) was performed using a 96-well microplate. 5 µL of cell lysate and 5 µL of 1% SDS lysis buffer were added to each well of the 96-well plate, followed by an additional 200 µL of BCA reagent (Reagent A: Reagent B = 50:1). The wells were incubated at 37°C for 30 minutes and cooled to room temperature for 10 minutes. After shaking for 10 seconds, the absorbance was measured at a wavelength of 562 nm. The unknown protein concentration was determined using a BSA standard curve (0, 0.125, 0.25, 0.5, 1, 2 mg/mL). Western blotting samples were prepared by mixing cell lysate, 1% SDS lysis buffer, 4x NuPAGE™ LDS Sample buffer (Invitrogen, NP0008), and 10X NuPAGE™ Sample Reducing Agent (Invitrogen, NP0009) and boiling at 70°C for 10 minutes.
[Electrophoresis] 10 µg of protein sample was loaded into each well of a NuPAGE™ 4 to 12%, Bis-Tris, 1.0 mm Mini Protein Gel, 15-well, 17-well, or 26-well (Invitrogen, NP0323BOX, NP0329BOX, or WG1403BOX) and electrophoresed for 40 minutes using NuPAGE™MES SDS Running Buffer (Invitrogen, NP0002) at 200 V (constant V).
[Transfer] Transfer was performed for 15 or 18 minutes using the electrophoresed gel and the Trans-Blot® Turbo™ Transfer Starter System (Bio-RAD, #17001918, Mini Nitrocellulose) at 1.3 A (constant A) and 25 V (limit V). To confirm protein transfer, 15 mL of Ponceau S solution (Sigma, P7170-1L) was used to stain for 1 minute, and then washed to check the degree of transfer.
[Blocking] The membrane for AR and GAPDH detection was blocked with 5% skim milk/0.2% TBST (Skim milk: BD, 232100/ 20X TBS: Biosesang, TR2008-100-00/ 10% Tween 20 Solution: Bio-RAD, #161-0781) for 45 minutes.
[Antibodies and Detection] Primary AR antibody (Androgen Receptor: CST, 5153S) was mixed with 5% skim milk/0.2% TBST at a ratio of 1:1,000 and reacted at room temperature for 3 hours or at 4°C overnight. Primary GAPDH antibody (CST, 2118S) was mixed with 5% skim milk/0.2% TBST at a ratio of 1:2,000 and reacted at room temperature for 3 hours or at 4°C overnight. Afterwards, TBST (0.2% Tween 20) was used for washing three times every 5 minutes. Secondary antibody to AR antibody, Anti-rabbit IgG, HRP-linked Antibody (CST, 7074S), was mixed with 5% skim milk/0.2% TBST at a ratio of 1:5,000 and reacted at room temperature for 45 minutes. […]

Read-outs that look alike come from different tables or passages of the source.

For the compound `N#Cc1ccc(N2CCC(C(=O)Nc3ccc(OC4CCN(CC5CCN(c6ccc(NC7CCC(=O)NC7=O)cc6F)CC5)CC4)cn3)CC2)cc1C(F)(F)F` (stereo not drawn) [Example 1, 1-(4-cyano-3-(trifluoromethyl)phenyl)-N-(5-((1-((1-(4-((2,6-dioxopiperidin-3-yl)amino)-2-fluorophenyl)piperidin-4-yl)methyl)piperidin-4-yl)oxy)pyridin-2-yl)piperidine-4-carboxamide], under “VCaP, 20 h”, the Dmax at 0.01 µM turned out to be 89% and the Dmax at 0.1 µM amounted to 99%.

In the case of `N#Cc1ccc(N2CCC(C(=O)Nc3ccc(OC4CCN(CC5CCN(c6ccc(N[C@H]7CCC(=O)NC7=O)cc6F)CC5)CC4)cn3)CC2)cc1C(F)(F)F` [Example 2, (S)-1-(4-cyano-3-(trifluoromethyl)phenyl)-N-(5-((1-((1-(4-((2,6-dioxopiperidin-3-yl)amino)-2-fluorophenyl)piperidin-4-yl)methyl)piperidin-4-yl)oxy)pyridin-2-yl)piperidine-4-carboxamide], where the note is “VCaP, 20 h”, the Dmax at 0.01 µM was 83% and the Dmax at 0.1 µM was found to be 99%. The Dmax (VCaP) is 99%. Also, the DC50 (VCaP cells, 20 hours) is 0.19 nM.

With `N#Cc1ccc(N2CCC(C(=O)Nc3ccc(OC4CCN(CC5CCN(c6ccc(N[C@@H]7CCC(=O)NC7=O)cc6F)CC5)CC4)cn3)CC2)cc1C(F)(F)F` [Example 3, (R)-1-(4-cyano-3-(trifluoromethyl)phenyl)-N-(5-((1-((1-(4-((2,6-dioxopiperidin-3-yl)amino)-2-fluorophenyl)piperidin-4-yl)methyl)piperidin-4-yl)oxy)pyridin-2-yl)piperidine-4-carboxamide], where the note is “VCaP, 20 h”, the Dmax at 0.01 µM amounted to 72% and the Dmax at 0.1 µM turned out to be 96%.

As to `N#Cc1ccc(N2CCC(C(=O)Nc3ccc(OC4CCN(CC5CCN(c6ccc(NC7CCC(=O)NC7=O)cc6F)CC5)CC4)nn3)CC2)cc1C(F)(F)F` (stereo not drawn) [Example 7, 1-(4-cyano-3-(trifluoromethyl)phenyl)-N-(6-((1-((1-(4-((2,6-dioxopiperidin-3-yl)amino)-2-fluorophenyl)piperidin-4-yl)methyl)piperidin-4-yl)oxy)pyridazin-3-yl)piperidine-4-carboxamide], where the note is “VCaP, 20 h”, the Dmax at 0.01 µM was determined as 94% and the Dmax at 0.1 µM is 100%.

In the case of `N#Cc1ccc(N2CCC(C(=O)Nc3ccc(OC4CCN(CC5CCN(c6ccc(NC7CCC(=O)NC7=O)cc6F)CC5)CC4)cn3)CC2)cc1Cl` (stereo not drawn) [Example 8, 1-(3-chloro-4-cyanophenyl)-N-(5-((1-((1-(4-((2,6-dioxopiperidin-3-yl)amino)-2-fluorophenyl)piperidin-4-yl)methyl)piperidin-4-yl)oxy)pyridin-2-yl)piperidine-4-carboxamide], for the setting “VCaP, 20 h”, the Dmax at 0.01 µM was 94% and the Dmax at 0.1 µM was determined as 99%.

In the case of `N#Cc1ccc(N2CCC(C(=O)Nc3ccc(OC4CCN(CC5CCN(c6ccc(N[C@H]7CCC(=O)NC7=O)cc6F)CC5)CC4)cn3)CC2)cc1Cl` [Example 9, (S)-1-(3-chloro-4-cyanophenyl)-N-(5-((1-((1-(4-((2,6-dioxopiperidin-3-yl)amino)-2-fluorophenyl)piperidin-4-yl)methyl)piperidin-4-yl)oxy)pyridin-2-yl)piperidine-4-carboxamide], under “VCaP, 20 h”, the Dmax at 0.01 µM was 94% and the Dmax at 0.1 µM is 99%. Moreover, the Dmax (VCaP) was 99%. For the setting “VCaP cells, 20 hours”, the half-maximal degradation concentration (DC50) came out at 0.1 nM.

As for `N#Cc1ccc(N2CCC(C(=O)Nc3ccc(OC4CCN(CC5CCN(c6ccc(N[C@@H]7CCC(=O)NC7=O)cc6F)CC5)CC4)cn3)CC2)cc1Cl` [Example 10, (R)-1-(3-chloro-4-cyanophenyl)-N-(5-((1-((1-(4-((2,6-dioxopiperidin-3-yl)amino)-2-fluorophenyl)piperidin-4-yl)methyl)piperidin-4-yl)oxy)pyridin-2-yl)piperidine-4-carboxamide], where the note is “VCaP, 20 h”, the Dmax at 0.01 µM was determined as 85% and the Dmax at 0.1 µM came out at 99%.

On to `N#Cc1ccc(N2CCC(C(=O)Nc3ccc(OC4CCN(CC5CCN(c6ccc(NC7CCC(=O)NC7=O)cc6F)CC5)CC4)cn3)CC2)c(F)c1Cl` (stereo not drawn) [Example 12, 1-(3-chloro-4-cyano-2-fluorophenyl)-N-(5-((1-((1-(4-((2,6-dioxopiperidin-3-yl)amino)-2-fluorophenyl)piperidin-4-yl)methyl)piperidin-4-yl)oxy)pyridin-2-yl)piperidine-4-carboxamide], for which, under “VCaP, 20 h”, the Dmax at 0.01 µM is 94% and the Dmax at 0.1 µM stood at 98%.

With `COc1cc(N2CCC(C(=O)Nc3ccc(OC4CCN(CC5CCN(c6ccc(NC7CCC(=O)NC7=O)cc6F)CC5)CC4)cn3)CC2)ccc1C#N` (stereo not drawn) [Example 13, 1-(4-cyano-3-methoxyphenyl)-N-(5-((1-((1-(4-((2,6-dioxopiperidin-3-yl)amino)-2-fluorophenyl)piperidin-4-yl)methyl)piperidin-4-yl)oxy)pyridin-2-yl)piperidine-4-carboxamide], for the setting “10 nM compound, 20 hours, VCaP cells”, the Dmax at 0.01 µM was found to be 95%. In addition, where the note is “100 nM compound, 20 hours, VCaP cells”, the Dmax at 0.1 µM came out at 100%.

Regarding `N#Cc1ccc(N2CCC(C(=O)Nc3ccc(OC4CCN(CC5CCN(c6ccc(NC7CCC(=O)NC7=O)cc6F)CC5)CC4)nn3)CC2)c(F)c1Cl` (stereo not drawn) [Example 15, 1-(3-chloro-4-cyano-2-fluorophenyl)-N-(6-((1-((1-(4-((2,6-dioxopiperidin-3-yl)amino)-2-fluorophenyl)piperidin-4-yl)methyl)piperidin-4-yl)oxy)pyridazin-3-yl)piperidine-4-carboxamide], under “VCaP, 20 h”, the Dmax at 0.01 µM is 98% and the Dmax at 0.1 µM was found to be 100%.
